# US20260258064A1 (SIRONAX LTD., priority 2023, published 2026)
# Biological target: T1, SARM1 (50-724) (Homo sapiens, UniProt Q6SZW1)
# T1 construct: Purified SARM1 (50-724) with a final concentration of 2 nM was pre-incubated with a test compound
# T1 sequence (Q6SZW1 50-724): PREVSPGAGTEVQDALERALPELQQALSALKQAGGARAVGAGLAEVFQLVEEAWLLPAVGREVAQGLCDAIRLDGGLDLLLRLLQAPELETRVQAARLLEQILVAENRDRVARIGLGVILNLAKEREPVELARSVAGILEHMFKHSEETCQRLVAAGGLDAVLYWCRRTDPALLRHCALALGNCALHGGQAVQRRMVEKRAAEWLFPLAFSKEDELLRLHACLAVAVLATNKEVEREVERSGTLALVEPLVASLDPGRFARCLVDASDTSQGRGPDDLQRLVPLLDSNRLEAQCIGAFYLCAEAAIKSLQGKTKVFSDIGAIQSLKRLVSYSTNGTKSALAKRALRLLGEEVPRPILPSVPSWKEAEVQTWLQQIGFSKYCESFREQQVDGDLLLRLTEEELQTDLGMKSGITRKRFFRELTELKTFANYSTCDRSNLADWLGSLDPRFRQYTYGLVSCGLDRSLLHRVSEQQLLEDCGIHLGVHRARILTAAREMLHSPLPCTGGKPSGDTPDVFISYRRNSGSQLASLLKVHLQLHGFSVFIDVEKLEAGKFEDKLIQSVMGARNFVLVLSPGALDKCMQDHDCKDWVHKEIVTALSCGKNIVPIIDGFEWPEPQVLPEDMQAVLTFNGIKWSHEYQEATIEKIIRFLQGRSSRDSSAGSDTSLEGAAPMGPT
# Assay: SARM1 (50-724) enzymatic assay (LC-MS/MS)
# Type: biochemical
# Conditions: Purified SARM1 (50-724) 2 nM, NMN as activator, NAD+ as substrate, 1 h at room temperature, read-out: IC50 (SARM1 inhibitory activity)
# In short: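 Human SARM1 (50-724), 2 nM, pre-incubated 15 min at room temperature with compound in Dulbecco's PBS. Reaction started with 200 µM NMN (activator) plus […] NAD^+ substrate, run 1 h at room temperature, quenched with 70% acetonitrile. Turnover quantified by LC-MS/MS; IC50 reported.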
row,Structure (SMILES),IC50 [nM]
1,"FC(F)(F)c1ccc2[nH]c(-c3nncn3-c3cnccc3C(F)(F)F)c(C3CCNC3)c2c1 (stereo not drawn) [Compound 375, 3-(pyrrolidin-3-yl)-5-(trifluoromethyl)-2-(4-(4-(trifluoromethyl)pyridin-3-yl)-4H-1,2,4-triazol-3-yl)-1H-indole]",100 to 500
2,"CC(C)(O)c1cc(F)c2[nH]c(-c3nnccc3-c3cnccc3C(F)(F)F)nc2c1 [Compound 418, 2-(4-fluoro-2-(4-(4-(trifluoromethyl)pyridin-3-yl)pyridazin-3-yl)-1H-benzo[d]imidazol-6-yl)propan-2-ol]",≤ 100
3,Cc1nsc(-n2cnnc2-c2nc3cc(C(F)(F)F)ccc3[nH]2)c1Cl [Compound 69],100 to 500
4,"Cn1nc(-n2cnnc2-c2nc3cc(C(F)(F)F)ccc3[nH]2)c(Cl)c1Cl [Example 53, 2-(4-(4,5-Dichloro-1-methyl-1H-pyrazol-3-yl)-4H-1,2,4-triazol-3-yl)-5-(trifluoromethyl)-1H-benzo[d]imidazole]",≤ 100
5,"FC(F)(F)c1ccncc1-n1cnnc1-c1nc2cc(C3CCOCC3)ccc2[nH]1 [Compound 352, 5-tetrahydropyran-4-yl-2-[4-[4-(trifluoromethyl)-3-pyridyl]-1,2,4-triazol-3-yl]-1H-benzimidazole]",100 to 500
6,"Fc1cc(N2CCC2)cc2nc(-c3nncn3-c3cnccc3C(F)(F)F)[nH]c12 [Compound 301, 5-(azetidin-1-yl)-7-fluoro-2-(4-(4-(trifluoromethyl)pyridin-3-yl)-4H-1,2,4-triazol-3-yl)-1H-benzo[d]imidazole]",100 to 500
7,"Clc1cccc(-n2cnnc2-c2nc3cc(C4CCCO4)ccc3[nH]2)c1Cl (stereo not drawn) [Compound 136, 2-(4-(2,3-dichlorophenyl)-4H-1,2,4-triazol-3-yl)-5-(tetrahydrofuran-2-yl)-1H-benzo[d]imidazole]",≤ 100
8,FC(F)(F)c1ccc2[nH]c(-c3n[nH]cc3-c3cccc(Cl)c3Cl)nc2c1 [Example 43],500 to 1000
9,"NC(=O)c1cc(Cl)c(Cl)c(-n2cnnc2-c2nc3cc(C(F)(F)F)ccc3[nH]2)c1 [Compound 174, 3,4-dichloro-5-(3-(5-(trifluoromethyl)-1H-benzo[d]imidazol-2-yl)-4H-1,2,4-triazol-4-yl)benzamide]",≤ 100
10,"Cn1ncc(Cl)c1-c1ccnnc1-c1nc2cc(C(F)(F)F)ccc2[nH]1 [Compound 399, 2-(4-(4-chloro-1-methyl-1H-pyrazol-5-yl)pyridazin-3-yl)-5-(trifluoromethyl)-1H-benzo[d]imidazole]",≤ 100
11,"NC(=O)c1cc(-c2nc3cc(C(F)(F)F)ccc3[nH]2)n(-c2cccc(F)c2Cl)n1 [Compound 397, 1-(2-chloro-3-fluorophenyl)-5-(5-(trifluoromethyl)-1H-benzo[d]imidazol-2-yl)-1H-pyrazole-3-carboxamide]",≤ 100
12,"Cc1ccc2[nH]c(-c3ncnn3C3CCCC3)nc2c1 [Compound 10, 2-(2-cyclopentyl-1,2,4-triazol-3-yl)-5-methyl-1H-benzimidazole]",> 1000
13,"CC1(O)CC(Cc2nnc(-c3nc4cc(C(F)(F)F)ccc4[nH]3)n2-c2cccc(F)c2Cl)C1 (stereo not drawn) [Compound 421, 3-((4-(2-chloro-3-fluorophenyl)-5-(5-(trifluoromethyl)-1H-benzo[d]imidazol-2-yl)-4H-1,2,4-triazol-3-yl)methyl)-1-methylcyclobutan-1-ol]",≤ 100
14,"FC(F)(F)c1ccc2[nH]c(-c3nncn3-c3cc4nccn4cc3C(F)(F)F)nc2c1 [Compound 236, 5-(trifluoromethyl)-2-(4-(6-(trifluoromethyl)imidazo[1,2-a]pyridin-7-yl)-4H-1,2,4-triazol-3-yl)-1H-benzo[d]imidazole]",≤ 100

# The remaining lines, values ahead:
row,IC50 [nM],Structure (SMILES)
1,≤ 100,"Fc1ccc(-n2cnnc2-c2nc3cc(C(F)(F)F)cnc3[nH]2)c(Cl)c1F [Compound 170, 2-(4-(2-chloro-3,4-difluorophenyl)-4H-1,2,4-triazol-3-yl)-6-(trifluoromethyl)-3H-imidazo[4,5-b]pyridine]"
2,≤ 100,"CC(c1ccccc1)c1cc(F)c2[nH]c(-c3nncn3-c3cnccc3C(F)(F)F)nc2c1 (stereo not drawn) [Compound 431, 7-fluoro-5-(1-phenylethyl)-2-(4-(4-(trifluoromethyl)pyridin-3-yl)-4H-1,2,4-triazol-3-yl)-1H-benzo[d]imidazole]"
3,> 1000,"Cc1nocc1-n1cnnc1-c1nc2cc(C(F)(F)F)ccc2[nH]1 [Compound 269, 3-methyl-4-(3-(5-(trifluoromethyl)-1H-benzo[d]imidazol-2-yl)-4H-1,2,4-triazol-4-yl)isoxazole]"
4,100 to 500,"CS(=O)(=O)c1ccc2[nH]c(-c3nncn3-c3cccc(Cl)c3Cl)nc2c1 [Example 46, 2-(4-(2,3-dichlorophenyl)-4H-1,2,4-triazol-3-yl)-5-(methylsulfonyl)-1H-benzo[d]imidazole]"
5,≤ 100,"O=S1(=O)CCN(c2ccc(Cl)c(-n3cnnc3-c3nc4cc(C(F)(F)F)ccc4[nH]3)n2)CC1 [Compound 201, 4-(5-chloro-6-(3-(5-(trifluoromethyl)-1H-benzo[d]imidazol-2-yl)-4H-1,2,4-triazol-4-yl)pyridin-2-yl)thiomorpholine 1,1-dioxide]"
6,≤ 100,"Fc1cc(C2CC2)cc2nc(-c3nnccc3-c3cnccc3C(F)(F)F)[nH]c12 [Compound 420, 6-cyclopropyl-4-fluoro-2-(4-(4-(trifluoromethyl)pyridin-3-yl)pyridazin-3-yl)-1H-benzo[d]imidazole]"
7,500 to 1000,"Cc1ccc2[nH]c(-c3ccnn3C3CCCC3)nc2c1 [Compound 4, 2-(2-cyclopentylpyrazol-3-yl)-5-methyl-1H-benzimidazole]"
8,100 to 500,"Cc1ccc2[nH]c(-c3ccc(C#N)n3C3CCCC3)nc2c1 [Compound 19, 1-cyclopentyl-5-(5-methyl-1H-1,3-benzodiazol-2-yl)pyrrole-2-carbonitrile]"
9,> 1000,O=c1onc(-c2cccc(Cl)c2Cl)n1-c1nc2cc(C(F)(F)F)ccc2[nH]1 [Compound 32]
10,100 to 500,"COCCOc1c(Cl)ccc2[nH]c(-c3nncn3-c3cnccc3C(F)(F)F)nc12 [Compound 371, 5-chloro-4-(2-methoxyethoxy)-2-(4-(4-(trifluoromethyl)pyridin-3-yl)-4H-1,2,4-triazol-3-yl)-1H-benzo[d]imidazole]"
11,100 to 500,"FC(F)(F)c1ccc2[nH]c(-c3oncc3-c3cccc(Cl)c3Cl)nc2c1 [Compound 273, 4-(2,3-dichlorophenyl)-5-(5-(trifluoromethyl)-1H-benzo[d]imidazol-2-yl)isoxazole]"
12,≤ 100,"Fc1c(C2CC(F)(F)C2)ccc2[nH]c(-c3nncn3-c3cnccc3C(F)(F)F)nc12 [Compound 314, 5-(3,3-difluorocyclobutyl)-4-fluoro-2-(4-(4-(trifluoromethyl)pyridin-3-yl)-4H-1,2,4-triazol-3-yl)-1H-benzo[d]imidazole]"
13,> 1000,Cn1cc(-c2ccc(Cl)cc2)c(-c2nc3cc(C(F)(F)F)ccc3[nH]2)cc1=O [Example 98]
14,≤ 100,"O=c1ccc(C(F)(F)F)c(-n2cnnc2-c2nc3cc(C(F)(F)F)ccc3[nH]2)[nH]1 [Compound 280, 5-(trifluoromethyl)-6-(3-(5-(trifluoromethyl)-1H-benzo[d]imidazol-2-yl)-4H-1,2,4-triazol-4-yl)pyridin-2(1H)-one]"
15,≤ 100,"O=c1cc(-n2cnnc2-c2cc3cc(C(F)(F)F)cc(F)c3[nH]2)c(OC(F)(F)F)cn1CCO [Compound 410, 4-(3-(7-fluoro-5-(trifluoromethyl)-1H-indol-2-yl)-4H-1,2,4-triazol-4-yl)-1-(2-hydroxyethyl)-5-(trifluoromethoxy)pyridin-2(1H)-one]"
16,100 to 500,"Cn1cc(-c2cccc(Cl)c2Cl)c(-c2nc3cc(Cl)c(Cl)cc3[nH]2)cc1=O [Compound 188, 4-(5,6-dichloro-1H-benzo[d]imidazol-2-yl)-5-(2,3-dichlorophenyl)-1-methylpyridin-2(1H)-one]"
17,≤ 100,"CC(c1cccnc1)c1cc(F)c2[nH]c(-c3nncn3-c3cnccc3C(F)(F)F)nc2c1 (stereo not drawn) [Compound 444, 7-fluoro-5-(1-(pyridin-3-yl)ethyl)-2-(4-(4-(trifluoromethyl)pyridin-3-yl)-4H-1,2,4-triazol-3-yl)-1H-benzo[d]imidazole]"
18,≤ 100,"CN(CCCC(N)=O)c1cc(F)c2[nH]c(-c3nncn3-c3cnccc3C(F)(F)F)nc2c1 [Compound 455, 4-((4-fluoro-2-(4-(4-(trifluoromethyl)pyridin-3-yl)-4H-1,2,4-triazol-3-yl)-1H-benzo[d]imidazol-6-yl)(methyl)amino)butanamide]"
19,≤ 100,"FC(F)(F)c1ccc2[nH]c(-c3nncn3-c3cnccc3C(F)(F)F)c(-c3cccnn3)c2c1 [Compound 426, 3-pyridazin-3-yl-5-(trifluoromethyl)-2-[4-[4-(trifluoromethyl)-3-pyridyl]-1,2,4-triazol-3-yl]-1H-indole]"
